From patent publication US12696901B2, “Pesticidally active heterocyclic derivatives with sulfur containing substituents” (SYNGENTA CROP PROTECTION AG, priority 2020, dated 2026)

Experiments:
Format in all cases: in vivo
[1] = system: Tetranychus urticae (Two-Spotted Spider Mite); assay: Activity against Tetranychus urticae (two-spotted spider mite), sprayed bean leaf discs; conditions: foliar, 192 h, application rate 200 ppm, mixed population (mobile stages), 8 days after infestation
Experimental: Example B9: Activity Against Tetranychus urticae (Two-Spotted Spider Mite)
Bean leaf discs on agar in 24-well microtiter plates were sprayed with aqueous test solutions prepared from 10,000 ppm DMSO stock solutions. After drying the leaf discs were infested with a mite population of mixed ages. The samples were assessed for mortality on mixed population (mobile stages) 8 days after infestation.

[2] = system: Carpocapsa (Cydia) Pomonella (Codling Moth); assay: Activity against Carpocapsa (Cydia) pomonella (codling moth), sprayed diet cubes; conditions: 336 h, application rate 12.5 ppm, L1 larvae, 14 days after infestation, read-out: effect in at least one of the two categories (mortality or growth inhibition)
In short: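 Paraffin-coated diet cubes were sprayed with test solutions at 12.5 ppm, dried, and infested with one L1 larva each (10 replicates). After incubation at 26–27 °C, mortality and growth inhibition were scored 14 days after infestation.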

[3] = system: Spodoptera littoralis (Egyptian Cotton Leaf Worm); assay: Activity against Spodoptera littoralis (Egyptian cotton leaf worm), sprayed cotton leaf discs; conditions: foliar, 72 h, application rate 200 ppm, L1 larvae, 3 days after infestation
In short: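 Leaf discs on agar were sprayed with aqueous solutions prepared from 10,000 ppm DMSO stock, dried, then infested with five L1 larvae. Mortality, anti-feeding and growth inhibition were scored against untreated discs 3 days after infestation. Control was recorded when any one category exceeded the untreated sample.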

[4] = system: Frankliniella occidentalis (Western Flower Thrips); assay: Activity against Frankliniella occidentalis (western flower thrips), sprayed sunflower leaf discs; conditions: foliar, 168 h, application rate 200 ppm, population of mixed ages, 7 days after infestation
Experimental: Example B4: Activity Against Frankliniella occidentalis (Western Flower Thrips)
Sunflower leaf discs were placed on agar in 24-well microtiter plates and sprayed with aqueous test solutions prepared from 10,000 ppm DMSO stock solutions. After drying the leaf discs were infested with a Frankliniella population of mixed ages. The samples were assessed for mortality 7 days after infestation.

[5] = system: Euschistus heros (Neotropical Brown Stink Bug); assay: Activity against Euschistus heros (neotropical brown stink bug), sprayed soybean leaves; conditions: 120 h, application rate 200 ppm, N2 nymphs, 5 days after infestation, read-out: effect in at least one of the two categories (mortality or growth inhibition)
Experimental: Example B3: Activity Against Euschistus heros (Neotropical Brown Stink Bug)
Soybean leaves on agar in 24-well microtiter plates were sprayed with aqueous test solutions prepared from 10,000 ppm DMSO stock solutions. After drying the leaves were infested with N2 nymphs. The samples were assessed for mortality and growth inhibition in comparison to untreated samples 5 days after infestation.

[6] = system: Bemisia tabaci (Cotton White Fly); assay: Activity against Bemisia tabaci (cotton white fly), sprayed cotton leaf discs; conditions: foliar, 144 h, application rate 200 ppm, adult white flies, 6 days after incubation
Experimental: Example B1: Activity Against Bemisia tabaci (Cotton White Fly)
Cotton leaf discs were placed on agar in 24-well microtiter plates and sprayed with aqueous test solutions prepared from 10,000 ppm DMSO stock solutions. After drying the leaf discs were infested with adult white flies. The samples were checked for mortality 6 days after incubation.

[7] = system: Plutella xylostella (Diamond Back Moth); assay: Activity against Plutella xylostella (diamond back moth), treated artificial diet; conditions: 192 h, application rate 200 ppm, eggs, 8 days after infestation, read-out: effect in at least one of the two categories (mortality or growth inhibition)
In short: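 Artificial diet treated with aqueous test solutions made from 10,000 ppm DMSO stocks, dried, then infested with Plutella eggs. Mortality and growth inhibition scored against untreated samples 8 days after infestation.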

[8] = system: Diabrotica balteata (Corn Root Worm); assay: Activity against Diabrotica balteata (corn root worm), corn seedlings on filter paper in cups; conditions: 120 h, application rate 3 ppm, L2 larva, 5 days after treatment, read-out: effect in at least one of the two categories (mortality or growth inhibition)
Experimental: Example B12: Activity Against Diabrotica Balteata (Corn Root Worm)
Three corn seedlings were placed on wetted filter paper in plastic cups, and 3 ml of diluted test solutions were pipetted onto them. The cups were infested with 10 L2 larva and checked for mortality and growth regulation 5 days after treatment.

[9] = system: Diabrotica balteata (Corn Root Worm); assay: Activity against Diabrotica balteata (corn root worm), sprayed maize sprouts on agar; conditions: 96 h, application rate 200 ppm, L2 larvae, 4 days after infestation, read-out: effect in at least one of the two categories (mortality or growth inhibition)
Experimental: Example B2: Activity Against Diabrotica balteata (Corn Root Worm)
Maize sprouts placed onto an agar layer in 24-well microtiter plates were treated with aqueous test solutions prepared from 10,000 ppm DMSO stock solutions by spraying. After drying, the plates were infested with L2 larvae (6 to 10 per well). The samples were assessed for mortality and growth inhibition in comparison to untreated samples 4 days after infestation.

[10] = system: Chilo suppressalis (Striped Rice Stemborer); assay: Activity against Chilo suppressalis (striped rice stemborer), treated artificial diet; conditions: 144 h, application rate 200 ppm, L2 larvae, 6 days after infestation
In short: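 Artificial diet treated with aqueous test solutions made from 10,000 ppm DMSO stocks, dried, then infested with L2 larvae, 6-8 per well. Mortality, anti-feeding effect and growth inhibition scored versus untreated samples 6 days after infestation; control counted when any one category exceeds the untreated sample.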

[11] = system: Myzus persicae (Green Peach Aphid); assay: Activity against Myzus persicae (green peach aphid), feeding/contact activity; conditions: 144 h, application rate 200 ppm, mixed ages, 6 days after infestation
Experimental: Example B6: Activity Against Myzus persicae (Green Peach Aphid) Feeding/Contact Activity
Sunflower leaf discs were placed onto agar in a 24-well microtiter plate and sprayed with aqueous test solutions prepared from 10,000 ppm DMSO stock solutions. After drying, the leaf discs were infested with an aphid population of mixed ages. The samples were assessed for mortality 6 days after infestation.

[12] = system: Myzus persicae (Green Peach Aphid); assay: Activity against Myzus persicae (green peach aphid), systemic activity; conditions: 144 h, test rate 24 ppm, roots of pea seedlings in test solution, 6 days
Experimental: Example B8: Activity Against Myzus persicae (Green Peach Aphid) Systemic Activity
Roots of pea seedlings infested with an aphid population of mixed ages were placed directly into aqueous test solutions prepared from 10,000 ppm DMSO stock solutions. The samples were assessed for mortality 6 days after placing seedlings into test solutions.

CCS(=O)(=O)c1c(N2Cc3ncc(C(F)(F)F)cc3C2=O)nc2ccc(C(C)(C)C#N)cn12 [Compound P35, 2-[3-ethylsulfonyl-2-[5-oxo-3-(trifluoromethyl)-7H-pyrrolo[3,4-b]pyridin-6-yl]imidazo[1,2-a]pyridin-6-yl]-2-methyl-propanenitrile]
≥ 80%: mortality at 200 ppm [1] | percent effect (mortality or growth inhibition) at 12.5 ppm [2] | percent control (mortality, anti-feedant effect or growth inhibition) at 200 ppm [3] | mortality at 200 ppm [4] | percent effect (mortality or growth inhibition) at 200 ppm [5] | mortality at 200 ppm [6] | percent effect (mortality or growth inhibition) at 200 ppm [7] | percent effect (mortality or growth inhibition) at 3 ppm [8] | percent effect (mortality or growth inhibition) at 200 ppm [9] | percent control (mortality, anti-feedant effect or growth inhibition) at 200 ppm [10] | mortality at 200 ppm [11]

CCS(=O)(=O)c1c(N2Cc3ccc(OC(F)(F)F)cc3C2=O)nc2ccc(C(C)(F)F)cn12 [Compound P17, 2-[6-(1,1-difluoroethyl)-3-ethylsulfonyl-imidazo[1,2-a]pyridin-2-yl]-6-(trifluoromethoxy) isoindolin-1-one]
≥ 80%: mortality at 200 ppm [1] | percent effect (mortality or growth inhibition) at 12.5 ppm [2] | percent control (mortality, anti-feedant effect or growth inhibition) at 200 ppm [3] | mortality at 200 ppm [4] | percent effect (mortality or growth inhibition) at 200 ppm [5] | mortality at 200 ppm [6] | percent effect (mortality or growth inhibition) at 200 ppm [7] | percent effect (mortality or growth inhibition) at 3 ppm [8] | percent effect (mortality or growth inhibition) at 200 ppm [9] | percent control (mortality, anti-feedant effect or growth inhibition) at 200 ppm [10] | mortality at 200 ppm [11]

CCS(=O)(=O)c1c(N2Cc3ncc(C(F)(F)F)cc3C2=O)nc2cc(C)ccn12 [Compound P23, 6-(3-ethylsulfonyl-7-methyl-imidazo[1,2-a]pyridin-2-yl)-3-(trifluoromethyl)-7H-pyrrolo[3,4-b]pyridin-5-one]
≥ 80%: percent control (mortality, anti-feedant effect or growth inhibition) at 200 ppm [3] | percent effect (mortality or growth inhibition) at 200 ppm [7] | percent effect (mortality or growth inhibition) at 200 ppm [9] | mortality at 24 ppm [12] | percent control (mortality, anti-feedant effect or growth inhibition) at 200 ppm [10] | mortality at 200 ppm [11]

CCS(=O)(=O)c1c(N2Cc3ncc(C(F)(F)F)cc3C2=O)nc2cc(OC)ccn12 [Compound P13, 6-(3-ethylsulfonyl-7-methoxy-imidazo [1,2-a]pyridin-2-yl)-3-(trifluoromethyl)-7H-pyrrolo[3,4-b] pyridin-5-one]
≥ 80%: percent control (mortality, anti-feedant effect or growth inhibition) at 200 ppm [3] | percent effect (mortality or growth inhibition) at 200 ppm [7] | percent effect (mortality or growth inhibition) at 200 ppm [9] | mortality at 24 ppm [12] | mortality at 200 ppm [11]

CCS(=O)(=O)c1c(N2Cc3ncc(C(F)(F)F)cc3C2=O)nc2ccc(OC(F)F)cn12 [Compound P10, 6-[6-(difluoromethoxy)-3-ethylsulfonyl-imidazo[1,2-a]pyridin-2-yl]-3-(trifluoromethyl)-7H-pyrrolo[3,4-b]pyridin-5-one]
≥ 80%: mortality at 200 ppm [1] | percent effect (mortality or growth inhibition) at 12.5 ppm [2] | percent control (mortality, anti-feedant effect or growth inhibition) at 200 ppm [3] | mortality at 200 ppm [4] | percent effect (mortality or growth inhibition) at 200 ppm [5] | mortality at 200 ppm [6] | percent effect (mortality or growth inhibition) at 200 ppm [7] | percent effect (mortality or growth inhibition) at 3 ppm [8] | percent effect (mortality or growth inhibition) at 200 ppm [9] | percent control (mortality, anti-feedant effect or growth inhibition) at 200 ppm [10] | mortality at 200 ppm [11]

CCS(=O)(=O)c1c(N2Cc3ncc(C(F)(F)F)cc3C2=O)nc2ccc(NC(C)=O)cn12 [Compound P36, N-[3-ethylsulfonyl-2-[5-oxo-3-(trifluoromethyl)-7H-pyrrolo[3,4-b]pyridin-6-yl]imidazo[1,2-a]pyridin-6-yl]acetamide]
≥ 80%: percent control (mortality, anti-feedant effect or growth inhibition) at 200 ppm [3] | percent effect (mortality or growth inhibition) at 200 ppm [7] | percent effect (mortality or growth inhibition) at 200 ppm [9] | mortality at 24 ppm [12] | percent control (mortality, anti-feedant effect or growth inhibition) at 200 ppm [10] | mortality at 200 ppm [11]
